According to patent US20120323012A1, “4-(AZACYCLOALKYL) -BENZENE-1,3-DIOL DERIVATIVES AS TYROSINASE INHIBITORS AND THEIR SYNTHESIS AND USE THEREOF” (GALDERMA RESEARCH & DEVELOPMENT, priority 2009, published 2012):

What was measured:
tyrosinase = biological target: T1, tyrosinase (Mus musculus, UniProt P11344); experiment: Tyrosinase activity inhibition test (B16F1 cell lysate, L-tyrosine/MBTH, 520 nm); type: biochemical, murine; conditions: lysate of B16F1 cells, 6 hours incubation at 37° C.; read-out: Tyrosine hydroxylase/Dopa oxidase IC50
T1 construct: the supernatant obtained constituted the cell lysate used as the source of tyrosinase in the enzymatic test; endogenous in cells; host or cells: B16F1 murine melanoma cells, stimulated with alpha-MSH; detergent lysate supernatant
T1 sequence (P11344 19-533): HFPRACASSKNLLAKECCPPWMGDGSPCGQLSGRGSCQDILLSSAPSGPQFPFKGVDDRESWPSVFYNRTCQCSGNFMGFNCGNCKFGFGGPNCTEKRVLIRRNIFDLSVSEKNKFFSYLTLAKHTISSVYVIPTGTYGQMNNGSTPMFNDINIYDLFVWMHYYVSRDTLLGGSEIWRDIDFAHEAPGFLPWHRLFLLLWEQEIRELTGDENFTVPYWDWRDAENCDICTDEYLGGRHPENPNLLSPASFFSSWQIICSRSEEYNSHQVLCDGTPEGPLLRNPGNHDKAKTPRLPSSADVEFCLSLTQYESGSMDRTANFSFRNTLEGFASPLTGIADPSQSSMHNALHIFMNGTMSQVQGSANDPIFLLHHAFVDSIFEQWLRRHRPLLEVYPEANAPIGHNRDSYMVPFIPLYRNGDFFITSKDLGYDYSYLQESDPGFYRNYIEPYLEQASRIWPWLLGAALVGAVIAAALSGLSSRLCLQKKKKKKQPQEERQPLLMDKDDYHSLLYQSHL
Experimental: The activity of the inhibitors was measured using a lysate of B16F1 cells (murine melanoma line). In the presence of L-tyrosine substrate, the tyrosinase present in these cells catalyses the hydroxylation of L-tyrosine to L-DOPA then oxidation of the L-DOPA to dopaquinone. In the presence of MBTH (3-methyl-2-benzo-thiazolinone hydrazone), dopaquinone is trapped to form a pink complex which absorbs at 520 nm.
The B16F1 cells were cultivated in DMEM medium+10% foetal calf serum+10^−9 M of αMSH for 4 days at 37° C. under 7% CO2. They were treated with trypsin, washed with PBS, counted and centrifuged. The pellet was taken up in an amount of 10^7 cells/mL in lysis buffer (sodium phosphate, 10 mM pH 6.8-Igepal 1%) and the suspension was treated with ultrasound for 10 seconds. After centrifuging for 30 minutes at 4000 rpm, the supernatant obtained constituted the cell lysate used as the source of tyrosinase in the enzymatic test.
The tests were carried out in duplicate in 384-well plates with a total volume of 50 μl. Each well contained: […]
The plate was incubated at 37° C. and a spectrographic recording was produced at 520 nm after 6 hours incubation. In order to compensate for any absorption by the products, a corrected absorbance was used (absorbance at time 6 h−absorbance at time zero). […]

[1] = tested on: MNT1 human melanoma cells; experiment: Melanogenesis inhibition test (14C-thiouracil incorporation normalized by 3H-leucine); type: cell-based; conditions: MNT-1, 24 h incubation, 14C incorporation normalized by 3H incorporation
Experimental: (§1) The inhibition of melanogenesis was measured in MNT1 human melanoma cells using a protocol adapted from Reigner et al, Cell Mol Biol (1999) 45: 969-980. The test was based on the concomitant incorporation of 2 radiolabelled tracers: ^14C-thiouracil is incorporated into neosynthesized melanin and reflects melanogenesis, while ^3H-leucine is incorporated into proteins and reflects cell viability and, as a result, the toxicity of the test compounds.
(§2) The MNT1 cells were plated into 96-well plates in the presence of the test compounds and radioisotopes. After 24 h incubation at 37° C., the cells were washed and the quantity of the 2 radioisotopes was measured. The test compounds were dose-response tested in order to calculate the IC50 inhibition of melanogenesis on the basis of the ^14C incorporation which was normalized by the ^3H incorporation. A cell toxicity IC50 was also calculated on the basis of the ^3H incorporation.

[2] = Cell toxicity (3H-leucine incorporation) in the melanogenesis inhibition test; type: cell-based; conditions: human, MNT1 human melanoma cells, 24 h incubation
Experimental: as §1, §2

| IC50 (tyrosinase) | melting point | Compound | IC50 [1] | IC50 at 24 h [2] |
| --- | --- | --- | --- | --- |
| 3 µM |  | CCCCc1ccc(O)cc1O [4-butylresorcinol (Rucinol), 4-butylresorcinol, reference compound] | 15 µM | 55 µM |
|  | 207 to 208 °C | O=S(=O)(Cc1ccccc1)N1CCC(c2ccc(O)cc2O)CC1 [Compound 1, 4-(1-phenylmethanesulphonylpiperidin-4-yl)-benzene-1,3-diol] | 0.2 µM | > 999 µM |
| 1.5 µM |  | Cc1ccc(S(=O)(=O)N2CCC(c3ccc(O)cc3O)CC2)cc1 [Compound 2, 4-[1-(toluene-4-sulphonyl)piperidin-4-yl]-benzene-1,3-diol] |  |  |
